Measurements published in patent publication US7700623B2, “Arylamidine derivative, salt thereof, and antifungal containing these” (Toyama Chemical Co., Ltd., priority 2004, dated 2010).
Where a name gives a salt, the structure may show the parent alone.

Experiments:
[1] = Repeated-dose toxicity test in mice (2), hematological test; assay type: in vivo; settings: value when control group is set to 100, male ICR mice
Description: (§1) Six-week old male ICR mice (body weight range: 27.4 to 33.7 g, the number of animals allocated to each group: 5) were used to examine the repeated-dose toxicity. A solution of each test compound was prepared by dissolution in 0.1 mol/L hydrochloric acid. Each compound was subcutaneously administered at a dose of 6.25 or 3.13 mg/kg once a day for 14 days. A sterilized physiological saline was administered to a control group. At the end of the administration period, each mouse was anesthetized with ether. An injection syringe containing a heparin solution (Novo-Heparin Injection 1000, Aventis Pharma K.K.) as an anticoagulant was used for blood collection from abdominal portion of vena cava. A hematological test was carried out for the following items.
(§2) (Hematological Test Items and Determination Methods)
(§3) Red blood cell count (RBC): Two-angle laser flow cytometry
(§4) Reticulocyte count: Flow cytometry after RNA staining

[2] = test system: Candida albicans TIMM1623; assay: Antifungal action: susceptibility testing of fungi by microbroth dilution method; assay type: cell-based; settings: Candida albicans TIMM1623, RPMI/MOPS pH 7.0, 35° C., 48 hours, 50% growth inhibition
Description: Susceptibility testing of fungi was carried out using a microbroth dilution method. The medium used in the susceptibility test was RPMI1640 (RPMI/MOPS) adjusted to pH 7.0 employing 0.165 mol/L morpholinepropanesulfonic acid (MOPS) and 1.0 mol/L sodium hydroxide. A test compound was dissolved in sterile water, which was then subjected to two-fold serial dilution using 100 μL of RPMI/MOPS on a 96-well round bottom plate. Candida albicans TIMM1623 cultured overnight at 35° C. on Sabouraud agar medium was suspended in a sterilized physiological saline. The number of cells was counted under a biological microscope; a suspension of inoculum organism 2×10^3 cells/mL) was prepared using RPMI/MOPS, and 100 μL thereof was then dispensed into each well; and a microplate containing a predetermined concentration of the test compound, the medium, and fungal cells was finally prepared. The plate was cultured at 35° C. for 48 hours. After the end of cultivation, absorbance was determined at 630 nm using an automatic spectrophotometer. The lowest test compound concentration at which 50% growth inhibition was observed as compared to growth control where no test compound was added was defined as IC50.

[3] = Repeated-dose toxicity test in mice (1), hematological test; assay type: in vivo; settings: value when control group is set to 100; 6.25 mg/kg subcutaneously once a day for 7 days, male ICR mice
Description: as §1, with “weight range: 30.6 to 34.8” for “weight range: 27.4 to 33.7”, “30.6 to 34.8 g, the” for “27.4 to 33.7 g, the”, “dissolution in distilled water. Each compound” for “dissolution in 0.1 mol/L hydrochloric acid. Each compound”, “of 6.25 mg/kg once” for “of 6.25 or 3.13 mg/kg once”, “day for 7 days. A” for “day for 14 days. A”, “portion of the vena cava.” for “portion of vena cava.”
as §2, §3, §4

[4] = Vero cell proliferation inhibition test (XTT assay); assay type: cell-based; settings: African green monkey, Vero cells, concentration inhibiting cell proliferation by 50%
Description: The cytotoxicity of each compound was evaluated using Vero cells. Each test compound was dissolved in dimethylsulfoxide (DMSO), which was then subjected to serial dilution with 10% FBS-containing E'MEM and added to a 96-well plate. The cells were suspended in 10% FBS-containing E'MEM, inoculated in an amount of 3,000 cells/well (96-well plate), and cultured in a CO2 incubator at 37° C. for 3 days. The degree of growth of Vero cells was evaluated using a 2,3-bis-(2-methoxy-4-nitro-5-sulfophenyl)-5-[(phenylamino)carbonyl]-2H-tetrazolium=inner salt=monosodium salt (XTT) assay. Thus, an XTT solution containing 1 mg/mL XTT and 25 μmol/L phenazine=methosulfate (PMS) was added to each well, which was then incubated in a CO2 incubator for 2 hours, followed by determining the absorbance of the well at 450 nm (reference: 655 nm) using a micro plate reader. The absorbance ratio between the control (no added compound) and each of the wells was calculated, and the concentration (CC50; μg/mL) of compound inhibiting cell proliferation by 50% was computed.

[5] = Hygroscopicity test (1): storage at relative humidity of 75% for one week; assay type: physicochemical
Description: The compound of Example 4 and the comparative compound were stored under conditions of room temperature and a relative humidity of 75% or 60° C. and a relative humidity of 75% for one week.

[6] = Hygroscopicity test (3): storage at 60° C. and relative humidity of 100% for one week; assay type: physicochemical; settings: relative humidity of 100%
Description: The compound of Example 10 and the comparative compound were stored under conditions of 60° C. and a relative humidity of 100% for one week. As a result, the comparative compound deliquesced.

[7] = test system: Trichomonas vaginalis CDC337; assay: Antiprotozoan action; assay type: cell-based; settings: 48 h
Description: Trichomonas vaginalis CDC337 was cultured in a Diamond's trypticase-yeast-maltose medium (pH 6.8) containing 8% fetal bovine serum (FBS). The protozoan bodies which had been cultured 37° C. for 2 days were centrifuged (1,500 rpm, 10 minutes) and subjected to medium replacement with a fresh medium before adjustment to 2×10^4 bodies/mL, followed by dispensing them in an amount of 100 μL/well in a micro plate (96-well, flat bottom). The test compound was dissolved using 0.1 mol/L hydrochloric acid, which was then diluted to a predetermined concentration with the medium, followed by dispensing 100 μL/well thereof into a micro plate. The minimal test compound concentration at which the movement of the bodies was not observed after culture 37° C. under anaerobic conditions for 2 days was defined as MIC.

[8] = test system: Candida albicans TIMM1623; assay: Mouse Candida infection model test (oral administration); assay type: in vivo; settings: 1 mg/kg orally for 7 days from 2 hours after infection, cyclophosphamide-compromised mice, observed 21 days after infection
Description: Candida albicans TIMM1623 on a SDA plate, which had been cultured overnight at 35° C. was suspended in a sterilized physiological saline, which was then diluted to prepare a suspension of inoculum organism. To make mice in a transiently compromised state, cyclophosphamide was intraperitoneally administered at 200 mg/kg 4 days before infection and at 100 mg/kg the next day after infection. Into the tail vein of mice was inoculated 0.2 mL of the prepared solution of inoculum Candida albicans TIMM1623 to induce infection (about 3×10^4 CFU/mouse). The test compound was suspended in 0.5% methylcellulose and orally administered at 1 mg/kg of mouse body weight. The treatment was started from 2 hours after infection and carried out for 7 days.

[9] = 3.13 mg/kg subcutaneously once a day for 14 days

For `N=C(N)c1ccc(OCCCC2CCN(CCCOc3ccc(C(=N)N)cc3)CC2)cc1` [Example 3, 4-{3-[4-(3-{4-[amino(imino)methyl]phenoxy}propyl)-1-piperidinyl]propoxy}benzamidine], the “Red blood cell count (RBC)” value [1, 9] was 96.4, the “Reticulocyte count (Reticulocyte)” value [1, 9] was 93.5 and the “Red blood cell count (RBC)” value ([1]; 6.25 mg/kg subcutaneously once a day for 14 days) was 98.7.

With `N=C(N)c1ccc(OCCCC2CCN(CCCOc3ccc(C(=N)N)cc3)CC2)cc1` [Example 4, 4-{3-[4-(3-{4-[amino(imino)methyl]phenoxy}propyl)-1-piperidinyl]propoxy}benzamidine hydrochloride] the IC50 [2] was no more than 0.0039 µg/mL, the “Red blood cell count (RBC)” value [3] was 94 and the CC50 at 3 days [4] was 25 µg/mL. The appearance after storage ([5]; 60° C.) was “powder without any change in the appearance” and the appearance after storage ([5]; room temperature) was “powder without any change in the appearance”.

For `N=C(N)c1ccc(OCCCC2CCN(CCCOc3ccc(C(=N)N)cc3)CC2)cc1` [Example 10, 4-{3-[4-(3-{4-[amino(imino)methyl]phenoxy}propyl)-1-piperidinyl]propoxy}benzamidine trihydrochloride pentahydrate], the deliquescence after storage [6] was “did not deliquesce” and the MIC [7] was 16 µg/mL.

For `NC(=NO)c1ccc(OCCCC2CCN(CCCOc3ccc(C(N)=NO)cc3)CC2)cc1` [Example 47, 4-{3-[4-(3-{4-[amino(hydroxyimino)methyl]phenoxy}propyl)-1-piperidinyl]propoxy}benzamide=oxime hydrochloride], the mice survived [8] was 80%.
